pIC50: −log10 of the molar value.
Each compound was assayed against T1, human SARM1(50-724) (Homo sapiens, UniProt Q6SZW1) (assay: SARM1 biological assay: HPLC measurement of NAD and NAM peak areas). Settings: not given.
T1 construct: 40 nM human SARM1(50-724)
T1 sequence (Q6SZW1 50-724): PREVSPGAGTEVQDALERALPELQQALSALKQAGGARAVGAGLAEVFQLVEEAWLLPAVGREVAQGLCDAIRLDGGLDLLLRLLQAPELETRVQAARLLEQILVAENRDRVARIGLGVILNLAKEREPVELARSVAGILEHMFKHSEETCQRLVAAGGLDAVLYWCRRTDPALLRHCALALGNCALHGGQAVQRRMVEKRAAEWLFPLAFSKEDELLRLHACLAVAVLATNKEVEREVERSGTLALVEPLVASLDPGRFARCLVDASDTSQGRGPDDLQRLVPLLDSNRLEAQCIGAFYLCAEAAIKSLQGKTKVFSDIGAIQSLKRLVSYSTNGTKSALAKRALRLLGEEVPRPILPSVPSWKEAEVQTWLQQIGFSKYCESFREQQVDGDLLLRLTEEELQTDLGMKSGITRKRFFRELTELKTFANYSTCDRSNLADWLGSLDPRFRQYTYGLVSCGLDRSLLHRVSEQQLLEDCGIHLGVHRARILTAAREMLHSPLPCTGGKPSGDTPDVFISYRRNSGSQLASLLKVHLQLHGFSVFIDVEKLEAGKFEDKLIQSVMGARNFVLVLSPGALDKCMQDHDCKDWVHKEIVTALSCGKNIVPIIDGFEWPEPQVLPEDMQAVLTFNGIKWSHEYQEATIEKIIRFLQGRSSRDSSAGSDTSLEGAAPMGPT
Assay type: biochemical
Protocol: Each reaction was run at a volume of 20 μL containing 50 μM compound (dissolved in DMSO; final concentration of DMSO is 1% v/v), 40 nM human SARM1(50-724), 0.3 mM NMN, 20 μM NAD, 1 mM TCEP, 25 mM HEPES pH 7.4, 10 mM KCl and 10 mM MgCl2. The reaction was incubated at room temperature for 60 minutes and quenched with 20 μL of 0.4% formic acid. The samples were run on Agilent HPLC 1260 Infinity II with Synergi 2.5 μM Fusion-RP 100 Å (100×3.0 mm) LC column from Phenomenex. Total run time for each sample was 4 minutes. The run was isocratic with 1.5% methanol in 40 mM ammonium acetate pH 6.0. Samples were run at a flow rate of 0.8 mL/min at 55° C. Peak areas of NAD and NAM were determined using OpenLAB CDS (Chem Station edition) software. For dose-response, the compound was diluted serially 1:3 in DMSO and added to the reaction starting at a final compound concentration of 100 μM in 1% DMSO.

SMILES	pIC50
FC1(F)CNC(c2nc(Cc3ccncc3)c[nH]2)C1 (stereo not drawn) [Example 32, 4-((2-(4,4-Difluoropyrrolidin-2-yl)-1H-imidazol-4-yl)methyl)pyridine]	5.00 to 6.00
ClC1CC(c2nc(Cc3ccncc3)c[nH]2)C1 (stereo not drawn) [Example 34, 4-((2-(3-Chlorocyclobutyl)-1H-imidazol-4-yl)methyl)pyridine]	> 6.00
N#CC1CC(c2nc(Cc3ccncc3)c[nH]2)C1 [Example 35B, (trans)-(1S, 3S)-3-(4-Pyridin-4ylmethyl)-1H-imidazol-2-yl)cyclobutane-1-carbonitrile]	> 6.00
FC(F)(F)O[C@H]1C[C@@H](c2nc(Cc3ccncc3)c[nH]2)C1 [Example 37A, (cis)-4-((2-(3-(Trifluoromethoxy)cyclobutyl)-1H-imidazole-4-yl)methyl)pyridine]	> 6.00
FC(F)(F)O[C@H]1C[C@H](c2nc(Cc3ccncc3)c[nH]2)C1 [Example 37B, (trans)-4-((2-(3-(Trifluoromethoxy)cyclobutyl)-1H-imidazole-4-yl)methyl)pyridine]	5.00 to 6.00
FC1(Cl)CC1c1nc(Cc2ccncc2)c[nH]1 (stereo not drawn) [Example 39, 4-((2-(2-Chloro-2-fluorocyclopropyl)-1H-imidazol-4-yl)methyl)pyridine]	> 6.00
FC1(F)CC1(F)c1nc(Cc2ccncc2)c[nH]1 (stereo not drawn) [Example 40, 4-((2-(1,2,2-Trifluorocyclopropyl)-1H-imidazol-4-yl)methyl)pyridine]	> 6.00

Same assay, conditions: 40 nM human SARM1(50-724), 0.3 mM NMN, 20 μM NAD, 60 min at room temperature; dose-response 1:3 serial dilution from 100 μM; read-out: Average IC50

pIC50	SMILES
5.00 to 6.00	N#C[C@H]1C[C@@H](c2nc(Cc3ccncc3)c[nH]2)C1 [Example 35A]
5.00 to 6.00	N#CC1(F)CC(c2nc(Cc3ccncc3)c[nH]2)C1 (stereo not drawn) [Example 38A]
